In US20100260680A1, “NOVEL BONE MASS INCREASING AGENT” (ORIENTAL YEAST CO., LTD., priority 2007, published 2010):
Bridges are numbered along the chain shown (N, C = ends). Where no end group is shown, it is not given here.

Test system: RAW264 cells
Test: TRAP activity in RAW264 cells with GST-RANKL
Format: cell-based
Method: Peptide E (SEQ ID NO: 16) was prepared from peptide D with the substitution of a single amino acid. TRAP activity and ALP activity were determined to compare peptide D and peptide E in terms of effects of causing osteoclast differentiation and osteoblast differentiation. RAW264 cells mixed with 10% FBS+αMEM (SIGMA) were seeded on a 96-well plate (2×10^3 cells/well). After confirmation of cell adhesion, the medium was replaced with 10% FBS+αMEM containing 10 nM GST-RANKL (Oriental Yeast Co., Ltd.). Peptide D and peptide E were separately added thereto at concentrations of 25, 50, 100, and 200 μM, followed by culture for 4 days. After the termination of culture, 100 μL acetone/ethanol was added to each well for cell fixation, followed by drying in a draft for 30 min.
In order to obtain a TRAP solution buffer at a concentration of 1.5 mg/mL, a solution was prepared by adjusting p-nitrophenyl phosphate (Nacalai) with 50 mM citric acid buffer and adding a 0.2 M sodium tartrate solution in a volume 1/10 that of citric acid buffer. The obtained TRAP solution buffer was added to each well in an amount of 100 μL followed by incubation at 37° C. for 45 min. Then, a 1N NaOH solution (50 μL) was added thereto to terminate the reaction. The OD value at 405 nm was determined for each well with a microplate reader (BMG Labtech) in the same manner as in Example 1.
RAW264 cells mixed with 10% FBS+αMEM (SIGMA) were seeded on a 96-well plate (2×10^3 cells/well). After cell adhesion had taken place, the medium was replaced with 10% FBS+αMEM containing 5 nM GST-RANKL (Oriental Yeast Co., Ltd.). Peptide D in the form of TFA, peptide D in the form of acetate, and peptide D in the form of hydrochloride with concentrations of 25 and 100 μM were separately added thereto, followed by culture for 4 days. After the completion of culture, acetone/ethanol (100 μL) was added to each well for cell fixation, followed by drying in a draft for 30 min. TRAP activity determination was carried out by the method described in Example 16. […] Peptide D in the form of hydrochloride was confirmed to have neither osteoblast differentiation activity nor osteoclastgenesis inhibition activity. However, peptide D in the form of acetate was confirmed to have higher osteoblast differentiation activity and lower osteoclastgenesis inhibition activity compared with peptide D in the form of TFA. […] It is also possible to produce modified peptide D having osteoblast differentiation activity alone or modified peptide D having osteoclastgenesis inhibition activity alone.

**Q.** Which results are given for “peptide D: cyclic peptide of SEQ ID NO: 7, 9 amino acids, two cysteine residues bound via a disulfide bond; binds to RANKL (YCWSQYLCY; disulfide 2-8 (inferred))”?
**A.** TRAP activity (25, 50, 100 and 200 μM, 10 nM GST-RANKL, 4 days): inhibit TRAP activity; TRAP activity, peptide D compared with peptide E (100 and 200 μM): significant inhibition actions compared with peptide E
